# Data reported in patent US10526327B2, “Histone demethylase inhibitors” (CELGENE QUANTICEL RESEARCH, INC., priority 2013, dated 2020).
# pIC50: −log10 of the molar value.
# Target: T1, Jarid1A (Homo sapiens, UniProt P29375)
# T1 construct: purchased BPS Bioscience 50110
# T1 sequence (P29375 1-1090): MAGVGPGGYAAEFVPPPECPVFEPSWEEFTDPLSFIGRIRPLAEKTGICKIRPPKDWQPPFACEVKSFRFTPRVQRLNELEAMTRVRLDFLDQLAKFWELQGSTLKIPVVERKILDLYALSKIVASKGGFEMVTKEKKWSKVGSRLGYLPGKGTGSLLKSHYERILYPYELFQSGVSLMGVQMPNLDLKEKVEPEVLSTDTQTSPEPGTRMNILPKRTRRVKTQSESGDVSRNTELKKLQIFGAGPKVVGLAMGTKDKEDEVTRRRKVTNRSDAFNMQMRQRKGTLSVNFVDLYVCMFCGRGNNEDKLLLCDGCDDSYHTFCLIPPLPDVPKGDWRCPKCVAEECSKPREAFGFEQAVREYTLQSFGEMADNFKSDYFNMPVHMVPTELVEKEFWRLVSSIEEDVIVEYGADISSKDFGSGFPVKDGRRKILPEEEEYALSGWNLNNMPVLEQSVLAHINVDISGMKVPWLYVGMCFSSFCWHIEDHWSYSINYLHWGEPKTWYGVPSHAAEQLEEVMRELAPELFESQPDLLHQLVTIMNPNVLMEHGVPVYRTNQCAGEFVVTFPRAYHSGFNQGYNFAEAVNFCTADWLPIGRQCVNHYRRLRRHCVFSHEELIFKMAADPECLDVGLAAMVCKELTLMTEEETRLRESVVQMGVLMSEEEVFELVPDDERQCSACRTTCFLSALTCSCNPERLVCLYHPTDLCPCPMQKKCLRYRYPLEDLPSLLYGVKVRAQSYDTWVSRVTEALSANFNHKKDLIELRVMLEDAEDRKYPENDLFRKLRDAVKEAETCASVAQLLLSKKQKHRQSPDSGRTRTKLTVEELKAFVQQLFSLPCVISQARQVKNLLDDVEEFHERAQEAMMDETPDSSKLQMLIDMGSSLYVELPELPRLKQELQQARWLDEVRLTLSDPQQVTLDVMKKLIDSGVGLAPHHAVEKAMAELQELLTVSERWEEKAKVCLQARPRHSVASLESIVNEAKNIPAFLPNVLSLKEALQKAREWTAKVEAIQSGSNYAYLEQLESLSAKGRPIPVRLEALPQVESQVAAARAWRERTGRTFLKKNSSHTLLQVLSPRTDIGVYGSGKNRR
# Test: Jarid1A in vitro enzyme inhibition assay (TR-FRET)
# Format: biochemical
# Summary of the method: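 Demethylation of 300 nM biotin-H3K4me3 peptide by 1 nM baculovirus-expressed Jarid1A (aa 1–1090) with 2 μM α-ketoglutarate, Fe(II) and ascorbate, pH 7.3, 30 min at room temperature. Stopped with EDTA; H3K4me1-2 product detected by TR-FRET (Eu anti-H3K4me1-2/streptavidin-APC). IC50 fitted from 665/615 ratio over 11-point dilutions.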
row,Structure (SMILES),pIC50
1,"CC(C)Oc1nc(O)c2ccncc2n1 [Example 1, 2-propan-2-yloxy-3H-pyrido[3,4-d]pyrimidin-4-one]",6.00 to 7.00
2,"CCOc1nc(O)c2ccncc2n1 [Example 2, 2-ethoxypyrido[3,4-d]pyrimidin-4-ol]",≥ 7.00
3,"Oc1nc(OCCOCC(F)(F)F)nc2cnccc12 [Example 23, 2-[2-(2,2,2-trifluoroethoxy)ethoxy]pyrido[3,4-d]pyrimidin-4-ol]",6.00 to 7.00
4,"CC(C)(O)CCOc1nc(O)c2ccncc2n1 [Example 24, 2-(3-hydroxy-3-methylbutoxy)pyrido[3,4-d]pyrimidin-4-ol]",≥ 7.00
5,"CC(CO)COc1nc(O)c2ccncc2n1 (stereo not drawn) [Example 25, 2-(3-hydroxy-2-methylpropoxy)pyrido[3,4-d]pyrimidin-4-ol]",6.00 to 7.00
6,"Oc1nc(OCC2CCCO2)nc2cnccc12 (stereo not drawn) [Example 26, 2-(oxolan-2-ylmethoxy)pyrido[3,4-d]pyrimidin-4-ol]",6.00 to 7.00
7,"Oc1nc(OCC2CCOC2)nc2cnccc12 (stereo not drawn) [Example 27, 2-(oxolan-3-ylmethoxy)pyrido[3,4-d]pyrimidin-4-ol]",6.00 to 7.00
8,"CC(=O)N(C)CCOc1nc(O)c2ccncc2n1 [Example 28, N-[2-(4-hydroxypyrido[3,4-d]pyrimidin-2-yl)oxyethyl]-N-methylacetamide]",6.00 to 7.00
9,"CC(C)OCCOc1nc(O)c2ccncc2n1 [Example 29, 2-(2-propan-2-yloxyethoxy)pyrido[3,4-d]pyrimidin-4-ol]",6.00 to 7.00
10,"Oc1nc(OCCOCc2ccccc2)nc2cnccc12 [Example 30, 2-(2-phenylmethoxyethoxy)pyrido[3,4-d]pyrimidin-4-ol]",6.00 to 7.00
11,"O=C(NCCOc1nc(O)c2ccncc2n1)c1ccccc1 [Example 31, N-[2-(4-hydroxypyrido[3,4-d]pyrimidin-2-yl)oxyethyl]benzamide]",≥ 7.00
12,"N#Cc1cccc(COc2nc(O)c3ccncc3n2)c1 [Example 32, 3-[(4-hydroxypyrido[3,4-d]pyrimidin-2-yl)oxymethyl]benzonitrile]",6.00 to 7.00
13,"Cn1ccc(COc2nc(O)c3ccncc3n2)n1 [Example 33, 2-[(1-methylpyrazol-3-yl)methoxy]pyrido[3,4-d]pyrimidin-4-ol]",5.00 to 6.00
14,"Oc1nc(Oc2ccccc2)nc2cnccc12 [Example 34, 2-phenoxypyrido[3,4-d]pyrimidin-4-ol]",≥ 7.00
15,"Oc1nc(OCc2ccccc2C(F)(F)F)nc2cnccc12 [Example 177, 2-{[2-(trifluoromethyl)phenyl]methoxy}pyrido[3,4-d]pyrimidin-4-ol]",5.00 to 6.00
16,"Oc1nc(OCc2cccc(F)c2)nc2cnccc12 [Example 179, 2-[(3-fluorophenyl)methoxy]pyrido[3,4-d]pyrimidin-4-ol]",5.00 to 6.00
17,"Oc1nc(OCc2ccc(F)cc2)nc2cnccc12 [Example 180, 2-[(4-fluorophenyl)methoxy]pyrido[3,4-d]pyrimidin-4-ol]",5.00 to 6.00
18,"Oc1nc(OCc2cccc(F)c2F)nc2cnccc12 [Example 181, 2-[(2,3-difluorophenyl)methoxy]pyrido[3,4-d]pyrimidin-4-ol]",5.00 to 6.00
19,"Oc1nc(OCc2cc(F)ccc2F)nc2cnccc12 [Example 182, 2-[(2,5-difluorophenyl)methoxy]pyrido[3,4-d]pyrimidin-4-ol]",5.00 to 6.00
20,"Oc1nc(OCc2c(F)cccc2F)nc2cnccc12 [Example 183, 2-[(2,6-difluorophenyl)methoxy]pyrido[3,4-d]pyrimidin-4-ol]",5.00 to 6.00
21,"Oc1nc(OCc2cccc3ccccc23)nc2cnccc12 [Example 184, 2-(naphthalen-1-ylmethoxy)pyrido[3,4-d]pyrimidin-4-ol]",5.00 to 6.00
22,"Oc1nc(OCc2ccccc2-c2ccccc2)nc2cnccc12 [Example 185, 2-[(2-phenylphenyl)methoxy]pyrido[3,4-d]pyrimidin-4-ol]",5.00 to 6.00
23,"Oc1nc(OCc2cccc(-c3ccccc3)c2)nc2cnccc12 [Example 186, 2-[(3-phenylphenyl)methoxy]pyrido[3,4-d]pyrimidin-4-ol]",5.00 to 6.00
24,"Oc1nc(OCc2ccc3ccccc3c2)nc2cnccc12 [Example 187, 2-(naphthalen-2-ylmethoxy)pyrido[3,4-d]pyrimidin-4-ol]",5.00 to 6.00
25,"Cn1cnc(-c2nccc3c(=O)[nH]cnc23)c1 [Example 198, 8-(1-methylimidazol-4-yl)-3H-pyrido[3,4-d]pyrimidin-4-one]",6.00 to 7.00

# The remaining lines, values ahead:
row,pIC50,Structure (SMILES)
1,5.00 to 6.00,"Oc1nc(OCc2ccccc2F)nc2cnccc12 [Example 178, 2-[(2-fluorophenyl)methoxy]pyrido[3,4-d]pyrimidin-4-ol]"
2,6.00 to 7.00,"Oc1nc(OCC2CCCc3ccccc32)nc2cnccc12 (stereo not drawn) [Example 188, 2-(1,2,3,4-tetrahydronaphthalen-1-ylmethoxy)pyrido[3,4-d]pyrimidin-4-ol]"
3,6.00 to 7.00,"Oc1nc(OC2Cc3ccccc3C2)nc2cnccc12 [Example 189, 2-(2,3-dihydro-1H-inden-2-yloxy)pyrido[3,4-d]pyrimidin-4-ol]"
4,6.00 to 7.00,"Oc1nc(OCC2CCc3ccccc32)nc2cnccc12 (stereo not drawn) [Example 190, 2-(2,3-dihydro-1H-inden-1-ylmethoxy)pyrido[3,4-d]pyrimidin-4-ol]"
5,6.00 to 7.00,"Oc1nc(OCC2CCc3ccccc3C2)nc2cnccc12 (stereo not drawn) [Example 191, 2-(1,2,3,4-tetrahydronaphthalen-2-ylmethoxy)pyrido[3,4-d]pyrimidin-4-ol]"
6,5.00 to 6.00,"Oc1nc(OC2CCc3ccccc32)nc2cnccc12 (stereo not drawn) [Example 192, 2-(2,3-dihydro-1H-inden-1-yloxy)pyrido[3,4-d]pyrimidin-4-ol]"
7,6.00 to 7.00,"Oc1nc(OCc2coc3ccccc23)nc2cnccc12 [Example 193, 2-(1-benzofuran-3-ylmethoxy)pyrido[3,4-d]pyrimidin-4-ol]"
8,5.00 to 6.00,"Oc1nc(OCC2COc3ccccc32)nc2cnccc12 (stereo not drawn) [Example 194, 2-(2,3-dihydro-1-benzofuran-3-ylmethoxy)pyrido[3,4-d]pyrimidin-4-ol]"
9,6.00 to 7.00,"Oc1nc(OCC2CCOc3ccccc32)nc2cnccc12 (stereo not drawn) [Example 195, 2-(3,4-dihydro-2H-1-benzopyran-4-ylmethoxy)pyrido[3,4-d]pyrimidin-4-ol]"
10,5.00 to 6.00,"Oc1nc(OC2CCCc3ccccc32)nc2cnccc12 (stereo not drawn) [Example 196, 2-(1,2,3,4-tetrahydronaphthalen-1-yloxy)pyrido[3,4-d]pyrimidin-4-ol]"
11,6.00 to 7.00,"Oc1nc(OC2CCOc3ccccc32)nc2cnccc12 (stereo not drawn) [Example 197, 2-(3,4-dihydro-2H-1-benzopyran-4-yloxy)pyrido[3,4-d]pyrimidin-4-ol]"
